Data as given in patent publication US20100304971A1, “HERBICIDAL COMBINATION” (Bayer CropScience AG, priority 2008, published 2010).

Legend:
Polygonum convolvulus = assay: Post-emergence action against weeds, greenhouse, visual scoring; assay type: in vivo; conditions: 11 days after application
Procedure: (§1) Seeds or rhizome pieces of monocotyledonous and dicotyledonous weeds were placed in sandy loam soil in plastic pots, covered with soil and cultivated in a greenhouse under good growth conditions. Three weeks after sowing, the test plants were treated at the 2- to 4-leaf stage. The compounds according to the invention, formulated as wettable powders or as emulsion concentrates, were sprayed onto the green parts of the plants in various dosages at a water application rate of 100 to 800 I/ha (converted). After the test plants had been left to stand in the greenhouse for 10 to 28 days under optimum growth conditions, the effect of the preparations was scored visually in comparison to untreated controls.
(§2) 0%=no control 100%=complete control

Veronica persica = assay: as above; assay type: in vivo; conditions: 11 days after application
Procedure: as §1, §2

CS(=O)(=O)c1ccc(C(=O)C2C(=O)CCCC2=O)c(Cl)c1COCC(F)(F)F [Compound B3-4, tembotrione]
Polygonum convolvulus Control in % (Polygonum convolvulus; Table 1, 50 g of ai/ha): 45%

CS(=O)(=O)c1ccc(C(=O)C2C(=O)CCCC2=O)c(Cl)c1COCC1CCCO1 (stereo not drawn) [Compound B3-3, tefuryltrione]
Polygonum convolvulus Control in % (Polygonum convolvulus; Table 3, 100 g of active ingredient/ha): 15%

CCSC(C)CC1CC(=O)C(/C(CC)=N/OC/C=C/Cl)=C(O)C1 (stereo not drawn) [Compound B2-3, clethodim]
Polygonum convolvulus Control in % (Polygonum convolvulus; Table 4, 50 g of active ingredient/ha): 20%

sodium salt of 2-iodo-N-[(4-methoxy-6-methyl-1,3,5-triazin-2-yl)carbamoyl]benzenesulfonamide [Compound A-2]
Polygonum convolvulus Control in % (Polygonum convolvulus; Table 1, 2.5 g of ai/ha, 0%=no control, 100%=complete control): 10% | Polygonum convolvulus Control in % (Polygonum convolvulus; Table 3, 2.5 g of active ingredient/ha): 20% | Polygonum convolvulus Control in % (Polygonum convolvulus; Table 4, 2.5 g of active ingredient/ha): 0% | Polygonum convolvulus Control in % (Polygonum convolvulus; Table 5, 2.5 g of ai/ha): 0% | Polygonum convolvulus Control in % (Polygonum convolvulus; Table 6, 2.5 g of ai/ha): 0% | Veronica persica Control in % (Veronica persica; Table 2, 2.5 g of ai/ha, 0%=no control, 100%=complete control): 5%

COCCOCc1nc(C(F)(F)F)ccc1C(=O)C1C(=O)C2CCC(C2)C1=O (stereo not drawn) [Compound B3-5, 3-[[2-[(2-methoxyethoxy)methyl]-6-(trifluoromethyl)pyridin-3-yl]carbonyl]bicyclo[3.2.1]octane-2,4-dione]
Veronica persica Control in % (Veronica persica; Table 2, 25 g of ai/ha): 20%

CCO/N=C(\CC)C1=C(O)CC(c2c(C)cc(C)cc2C)CC1=O (stereo not drawn) [Compound B2-8, tralkoxydim]
Polygonum convolvulus Control in % (Polygonum convolvulus; Table 5, 150 g of ai/ha): 20%

CCOc1cc(Cl)cc(CC)c1C1=C(O)C2(CCC(OC)CC2)NC1=O (stereo not drawn) [Compound B4-1, cis-3-(4-chloro-2-ethoxy-6-ethylphenyl)-4-hydroxy-8-methoxy-1-azaspiro[4.5]dec-3-en-2-one]
Polygonum convolvulus Control in % (Polygonum convolvulus; Table 6, 7.5 g of ai/ha): 20%
